Compound | solubility (mole fraction) (in acetonitrile, 283.1 K) | solubility (mole fraction) (in acetonitrile, 293.1 K) | solubility (mole fraction) (in acetonitrile, 303.1 K) | solubility (mole fraction) (in acetonitrile, 313.1 K) | solubility (mole fraction) (in acetonitrile, 323.1 K) | solubility (mole fraction) (in ethyl acetate, 283.1 K) | solubility (mole fraction) (in ethyl acetate, 293.1 K) | solubility (mole fraction) (in ethyl acetate, 303.1 K) | solubility (mole fraction) (in ethyl acetate, 313.1 K) | solubility (mole fraction) (in ethyl acetate, 323.1 K) | solubility (mole fraction) (in methanol, 283.1 K) | solubility (mole fraction) (in methanol, 293.1 K) | solubility (mole fraction) (in methanol, 303.1 K) | solubility (mole fraction) (in methanol, 313.1 K) | solubility (mole fraction) (in methanol, 323.1 K) | solubility (mole fraction) (in water, 283.1 K) | solubility (mole fraction) (in water, 293.1 K) | solubility (mole fraction) (in water, 303.1 K) | solubility (mole fraction) (in water, 313.1 K) | solubility (mole fraction) (in water, 323.1 K)
C=CC1=C(C(=O)O)N2C(=O)[C@@H](NC(=O)/C(=N\OCC(=O)O)c3csc(N)n3)[C@H]2SC1.O.O.O | 8.28e-05 | 0.000105 | 0.000127 | 0.000183 | 0.000292 | 5.08e-05 | 7.12e-05 | 0.000129 | 0.000175 | 0.00025 | 0.00635 | 0.00892 | 0.0132 | 0.0209 | 0.0309 | 9.7e-06 | 1.45e-05 | 2.02e-05 | 3.18e-05 | 5.09e-05
Cc1c(O)c(=O)ccn1C | 0.000187 | 0.000324 | 0.000599 | 0.00091 | 0.00137 | 6.77e-05 | 0.000104 | 0.000155 | 0.000218 | 0.000318 | 0.00194 | 0.00348 | 0.0052 | 0.00775 | 0.0114 | 0.00184 | 0.00227 | 0.0031 | 0.00414 | 0.00532

— BigSolDB 2.1
